Measured values from patent publication US5629007A, “Method of preventing prostatic cancer development” (priority 1995, dated 1997).

Target: T1, Human Type I Steroid 5α-Reductase (Homo sapiens, UniProt P18405)
T1 construct: Scalp punch biopsies from graft recipient sites were obtained; from tissue; host or cells: human scalp punch biopsies (hair transplant graft recipient sites), homogenate, resuspended 100,000×g pellet
T1 sequence (P18405 1-259): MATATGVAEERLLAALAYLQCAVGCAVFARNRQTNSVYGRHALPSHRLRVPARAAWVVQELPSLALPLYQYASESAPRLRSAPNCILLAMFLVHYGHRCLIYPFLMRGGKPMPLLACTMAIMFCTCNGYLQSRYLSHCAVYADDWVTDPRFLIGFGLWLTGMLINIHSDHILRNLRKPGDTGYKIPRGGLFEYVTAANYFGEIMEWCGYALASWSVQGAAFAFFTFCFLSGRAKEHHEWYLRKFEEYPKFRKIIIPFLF
Test: Human 5α-Reductase Homogenate Assay (Type I, human scalp): conversion of [3H]-testosterone to 5α-reduced metabolites
Format: biochemical
Details: 0.3 μM test compound, compared to control reaction mixtures; 50 nM [3H]-testosterone, pH 7.5, 25°, 180 min
Description: Methodology of Human Type I Steroid 5α-Reductase Assays
Approximately 60-75 punches from one surgical procedure were used to generate an enzyme preparation. The subcutaneous tissue was cut away and discarded. The skin was frozen with liquid nitrogen and pulverized to powder. […] The homogenization procedure consisted of four 15 second pulses. Connective tissue was cleared from the probe with forceps between pulses. […] The pellet was resuspended by homogenization with a Dounce homogenizer using the same buffer solution. An aliquot was taken for protein determination by the Lowry method, Lowry, et al., Protein Measurement with the Folin Phenol Reagent, J. Biol. Chem., 193, 265-75 (1951). Aliquots of the enzyme preparation were stored at -80° until use.
The reaction was initiated by the addition of 0.5 mg of Type I 5α-reductase. The reaction mixture was incubated at 25° for 180 min, and terminated by the addition of 1 mL ice-cold stopping solution. […] The samples were prepared for high performance liquid chromatography by solid phase extraction. […] The reaction mixtures were then applied to the columns. The columns were subsequently washed with 5 mL of acetone:water (1:4), followed by 0.3 mL of methanol. The samples were then eluted with 3 mL of methanol and collected in 20 mL scintillation vials. […] The column temperature was maintained at 35° and the flow rate was 1.5 mL/min.

| percent inhibition of Type I 5AR | Compound |
| --- | --- |
| 80% | CN1C(=O)CC[C@]2(C)c3ccc(Sc4nc5c(ccc6ccccc65)s4)cc3CC[C@@H]12 [Example 163, (+)-(4aR)-(10bR)-4-methyl-8-(2-naphtho<1,2-d>-thiazolylthio)-10b-methyl-1,2,3,4,4a,5,6,10b-octahydrobenzo[f]-quinolin-3-one] |
| 11% | C[C@]12CCC(=O)N[C@@H]1CCc1cc(-c3cnc4ccccc4c3)ccc12 [Example 196, (+)-(4aR)-(10bR)-8-(3-quinolinyl)-10b-methyl-1,2,3,4,4a,5,6,10b-octahydrobenzo[f]quinolin-3-one] |
| 86% | CN1C(=O)CC[C@]2(C)c3ccc(-c4ccc(-c5ccc(NC(=O)C(C)(C)C)s5)cc4)cc3CC[C@@H]12 [Example 222, (+)-(4aR)-(10bR)-4-methyl-8-(4-[(2-t-butylcarbonylamino]-5-thienyl]phenyl)-10b-methyl-1,2,3,4,4a,5,6,10b-octahydrobenzo[f]quinolin-3-one] |
| 90% | (+)-(4aR)-(10bR)-4-methyl-8-benzyloxycarbonyl-10b-methyl-1,2,3,4,4a,5,6,10b-octahydrobenzo[f]quinolin-3-one [Example 144] |

| Compound | percent inhibition of Type I 5AR |
| --- | --- |
| CN1C(=O)CC[C@]2(C)c3ccc(C=Cc4ccccc4)cc3CC[C@@H]12 [Example 285, (4aR)-(10bR)-4,10b-dimethyl-8-(2-phenylethenyl)-1,2,3,4,4a,5,6,10b-octahydrobenzo[f]quinolin-3-one] | 93% |
